Key:
[1] = Inhibition of Influenza virus A/X-31 RNA dependent RNA polymerase using ApG primer [adenyl (3'-5') guanosine] and [8-3H]GTP after 1 hr by filter-based assay; set-up: species or system Influenza A virus (A/X-31(H3N2))
[2] = Inhibition of Influenza virus B/Ned/537/05 RNA dependent RNA polymerase using ApG primer [adenyl (3'-5') guanosine] and [8-3H]GTP after 1 hr by filter-based assay
[3] = Cytotoxicity against MDCK cells assessed as change in cell morphology after 3 days by microscopic analysis; type: cell-based, Canis lupus familiaris; details: dog
MDCK [4] = assay: Prodrug activation in MDCK cells assessed as T-1105-RDP formation at 500 uM after 2 hrs by RP-HPLC-UV analysis; type: cell-based, Canis lupus familiaris; details: dog
[5] = Drug metabolism in MDCK cells assessed as T-1105-RDP formation at 450 uM up to 4 hrs by RP-HPLC-UV analysis; type: ADME, cell-based, Canis lupus familiaris; details: dog
MDCK [6] = type: cell-based, Canis lupus familiaris; details: dog, 2 h, 500 µM
MDCK [7] = assay: Prodrug activation in MDCK cells assessed as T-1105-RMP formation at 450 uM up to 4 hrs by RP-HPLC-UV analysis; type: cell-based, Canis lupus familiaris; details: dog
MDCK [8] = assay: Prodrug activation in MDCK cells assessed as T-1105-RTP formation at 450 uM up to 4 hrs by RP-HPLC-UV analysis; type: cell-based, Canis lupus familiaris; details: dog
Influenza B virus [9] = assay: microbe, parasite or virus in culture; details: Ned/537/05, MDCK, 72 h
Description: Antiviral activity against Influenza virus B/Ned/537/05 infected in MDCK cells assessed as reduction in viral replication at 3 days post infection by formazan-based MTS assay

[10] = Cytotoxicity against MDCK cells assessed as reduction in cell viability after 3 days by formazan-based MTS assay; set-up: species or system Canis lupus familiaris; details: dog
Influenza A virus [11] = assay: microbe, parasite or virus in culture; details: MDCK, 72 h
Description: Antiviral activity against Influenza virus A/X-31 infected in MDCK cells assessed as reduction in viral replication at 3 days post infection by formazan-based MTS assay

[12] = Cytotoxicity against HGPRT deficient 6-thioguanine-resistant MDCK cells assessed as change in cell morphology after 3 days by microscopic analysis; type: cell-based, Canis lupus familiaris; details: dog
Influenza B virus [13] = assay: microbe, parasite or virus in culture; details: Ned/537/05, MDCK, 72 h; remark: listed apart in the source
Description: Antiviral activity against Influenza virus B/Ned/537/05 infected in MDCK cells assessed as reduction in viral replication at 3 days post infection by microscopic analysis

[14] = Drug metabolism in MDCK cells assessed as 4-((((((2R,3S,4R,5R)-5-(3-carbamoyl-2-oxopyrazin-1(2H)-yl)-3,4-dihydroxytetrahydrofuran-2-yl)methoxy)(hydroxy)phosphoryloxy)(hydroxy)phosphoryloxy)methyl)phenyl decanoate formation at 450 uM up to 4 hrs by RP-HPLC-UV analysis; type: ADME, cell-based, Canis lupus familiaris; details: dog
Influenza A virus [15] = assay: microbe, parasite or virus in culture; details: MDCK, 72 h; remark: listed apart in the source
Description: Antiviral activity against Influenza virus A/X-31 infected in MDCK cells assessed as reduction in viral replication at 3 days post infection by microscopic analysis

[16] = Prodrug activation in phosphate buffer at pH 7.3 assessed as half life for T-1105-RMP formation up to 332 hrs by RP-HPLC-UV analysis; type: physicochemical; details: pH 7.3, 332 h
MDCK [17] = type: cell-based, Canis lupus familiaris; details: dog, 714 µM
MDCK [18] = assay: Prodrug activation in MDCK cells assessed as T-705-RMP formation at 714 uM after 25 hrs by RP-HPLC-UV analysis; type: cell-based, Canis lupus familiaris; details: dog
MDCK [19] = assay: Prodrug activation in MDCK cells assessed as parent compound remaining at 714 uM after 25 hrs by RP-HPLC-UV analysis; type: cell-based, Canis lupus familiaris; details: dog
[20] = Half life of the compound in 25 mM phosphate buffe at pH 1.5 to 7.3 by RP-HPLC analysis; type: physicochemical; details: phosphate buffer
Liver carboxylesterase [21] = target: T1, Liver carboxylesterase (Sus scrofa, UniProt Q29550); assay: Prodrug activation assessed as pig liver esterase mediated metabolite formation after 30 hrs by RP-HPLC chromatogram analysis; type: ADME; details: isolated protein
T1 sequence (Q29550 whole entry): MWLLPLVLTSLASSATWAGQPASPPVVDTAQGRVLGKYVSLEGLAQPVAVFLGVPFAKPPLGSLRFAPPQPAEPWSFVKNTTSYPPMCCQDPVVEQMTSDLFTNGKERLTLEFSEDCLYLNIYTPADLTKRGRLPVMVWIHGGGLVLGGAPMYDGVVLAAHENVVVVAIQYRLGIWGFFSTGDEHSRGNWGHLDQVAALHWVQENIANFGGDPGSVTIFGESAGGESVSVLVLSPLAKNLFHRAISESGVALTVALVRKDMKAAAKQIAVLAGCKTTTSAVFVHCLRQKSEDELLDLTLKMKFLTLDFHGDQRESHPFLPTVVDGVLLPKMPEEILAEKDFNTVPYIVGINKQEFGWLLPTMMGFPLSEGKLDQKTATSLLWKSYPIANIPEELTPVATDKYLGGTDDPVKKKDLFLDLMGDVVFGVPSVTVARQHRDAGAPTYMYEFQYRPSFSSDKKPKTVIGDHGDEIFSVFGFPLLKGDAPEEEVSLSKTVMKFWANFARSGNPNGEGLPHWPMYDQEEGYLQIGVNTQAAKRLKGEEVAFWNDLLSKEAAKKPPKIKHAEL

Liver carboxylesterase [22] = target: T1, Liver carboxylesterase; assay: Drug metabolism assessed as pig liver esterase mediated 4-((((((2R,3S,4R,5R)-5-(3-carbamoyl-5-fluoro-2-oxopyrazin-1(2H)-yl)-3,4-dihydroxytetrahydrofuran-2-yl)methoxy)(hydroxy)phosphoryloxy)(hydroxy)[…])methyl)phenyl pentanoate formation at 450 uM after 2 hrs by RP-HPLC chromatogram analysis; type: ADME; details: isolated protein
[23] = Stability of the compound in phosphate buffer at pH 7.3 after 30 hrs by RP-HPLC chromatogram analysis; type: physicochemical; details: pH 7.3, 30 h
[24] = Prodrug activation in phosphate buffer at pH 7.3 assessed as metabolite formation after 30 hrs by RP-HPLC chromatogram analysis; type: physicochemical; details: pH 7.3, 30 h
MDCK [25] = assay: Prodrug activation in MDCK cells assessed as T-1105-RMP formation at 465 uM after 1 to 840 mins by RP-HPLC-UV analysis; type: cell-based, Canis lupus familiaris; details: dog
MDCK [26] = assay: Prodrug activation in HGPRT deficient MDCK cells assessed as T-1105-RMP formation at 465 uM after 1 to 840 mins by RP-HPLC-UV analysis; type: cell-based, Canis lupus familiaris; details: dog

Nc1nc2c(ncn2[C@@H]2O[C@H](COP(=O)(O)OP(=O)(O)OP(=O)(O)O)[C@@H](O)[C@H]2F)c(=O)[nH]1
IC50 [1]: 2.5 µM | IC50 [2]: 4.4 µM

CCCCCCCCCCCCCCC(=O)Oc1ccc(COP(=O)(OCc2ccc(OC(=O)CCCC)cc2)OP(=O)(O)OP(=O)(O)OC[C@H]2O[C@@H](n3ccnc(C(N)=O)c3=O)[C@H](O)[C@@H]2O)cc1.CCN(CC)CC.CCN(CC)CC (stereo not given in full)
MCC at 72 h [3]: 16 µM | Drug metabolism (MDCK [4]): Metabolite_Detected | Drug metabolism [5]: Metabolite_Detected | Drug metabolism (MDCK [6]): Metabolite_Detected | Drug metabolism (MDCK [7]): Metabolite_Detected | Drug metabolism (MDCK [8]): Metabolite_Notdetected | EC50 (Influenza B virus [9]): 6 µM | CC50 at 72 h [10]: 38 µM | EC50 (Influenza A virus [11]): 6.7 µM | MCC at 72 h [12]: 16 µM | EC50 (Influenza B virus [13]): 9.9 µM | Drug metabolism [14]: Metabolite_Detected | EC50 (Influenza A virus [15]): 6 µM

CC(C)(C)c1cc2c(c(C(C)(C)C)c1)OP(=O)(OC[C@H]1O[C@@H](n3ccnc(C(N)=O)c3=O)[C@H](O)[C@@H]1O)OC2 (stereo not given in full)
t1/2 [16]: 16 h

NC(=O)c1ncn([C@@H]2O[C@H](CO)[C@@H](O)[C@H]2O)n1 [RIBAVIRIN]
MCC at 72 h [3]: 59 µM | EC50 (Influenza B virus [9]): 4.5 µM | CC50 at 72 h [10]: > 100 µM | EC50 (Influenza A virus [11]): 13 µM | MCC at 72 h [12]: 35 µM | EC50 (Influenza B virus [13]): 5.9 µM

Nc1nc2c(ncn2[C@@H]2O[C@H](COP(=O)(O)OP(=O)(O)OP(=O)(O)O)C[C@H]2O)c(=O)[nH]1
IC50 [1]: 16 µM

NC(=O)c1nc(F)c[nH]c1=O
MCC at 72 h [3]: > 250 µM | Drug metabolism (MDCK [17]): Metabolite_Notdetected | CC50 at 72 h [10]: > 250 µM | MCC at 72 h [12]: > 250 µM | Drug metabolism (MDCK [18]): Metabolite_Detected | Stability (MDCK [19]): 65%

CCCCCCCCCCCCCCC(=O)Oc1ccc(COP(=O)(OCc2ccc(OC(=O)CCCC)cc2)OP(=O)(O)OC[C@H]2O[C@@H](n3ccnc(C(N)=O)c3=O)[C@H](O)[C@@H]2O)cc1.CCN(CC)CC (stereo not given in full)
IC50 [1]: 49 to 126 µM | MCC at 72 h [3]: 21 µM | Drug metabolism (MDCK [4]): Metabolite_Detected | Drug metabolism [5]: Metabolite_Detected | Drug metabolism (MDCK [6]): Metabolite_Detected | Drug metabolism (MDCK [7]): Metabolite_Detected | Drug metabolism (MDCK [8]): Metabolite_Notdetected | EC50 (Influenza B virus [9]): 0.58 µM | CC50 at 72 h [10]: 31 µM | EC50 (Influenza A virus [11]): 1.6 µM | MCC at 72 h [12]: 16 µM | IC50 [2]: 49 to 126 µM | EC50 (Influenza B virus [13]): 0.67 µM | Drug metabolism [14]: Metabolite_Detected | EC50 (Influenza A virus [15]): 1.5 µM

COc1ccc2c(c1)COP(=O)(OC[C@@H]1C=C[C@H](n3cnc4c(N)ncnc43)O1)O2 (stereo not given in full)
half-life [20]: 10 to 45 h

CCCCCCCCCCCCCCC(=O)Oc1ccc(COP(=O)(OCc2ccc(OC(=O)CCCC)cc2)OP(=O)(O)OC[C@H]2O[C@@H](n3cc(F)nc(C(N)=O)c3=O)[C@H](O)[C@@H]2O)cc1.CCN(CC)CC (stereo not given in full)
MCC at 72 h [3]: 21 µM | Drug metabolism (Liver carboxylesterase [21]): Metabolite_Notdetected | Drug metabolism (Liver carboxylesterase [22]): Metabolite_Detected | Stability [23]: Unstable | EC50 (Influenza B virus [9]): 3.5 µM | CC50 at 72 h [10]: 35 µM | EC50 (Influenza A virus [11]): 10 µM | MCC at 72 h [12]: 16 µM | EC50 (Influenza B virus [13]): 7.2 µM | EC50 (Influenza A virus [15]): 5.4 µM | Drug metabolism [24]: Metabolite_Notdetected

NC(=O)c1nccn([C@@H]2O[C@H](COP(=O)(O)OP(=O)(O)OP(=O)(O)O)[C@@H](O)[C@H]2O)c1=O
IC50 [1]: 0.48 to 9.8 µM | Drug metabolism (MDCK [25]): Metabolite_Detected | Drug metabolism (MDCK [26]): Metabolite_Detected | IC50 [2]: 0.69 µM

Source: ChEMBL document CHEMBL4130627, “Prodrugs of the Phosphoribosylated Forms of Hydroxypyrazinecarboxamide Pseudobase T-705 and Its De-Fluoro Analogue T-1105 as Potent Influenza Virus Inhibitors” (J Med Chem, 2018)
